Patent US6737383B1, “Herbicidal oxadiazolidines” (priority 1999, dated 2004)

Tests used:
[1] = tested on: bedstraw; experiment: Test B pre/postemergence bedstraw; type: in vivo, Galium aparine; details: Preemergence; for Bedstraw plant response rating: scale of 0 to 10 where 0 is no effect and 10 is complete control
Method in brief: (§1)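 Herbicidal effect was estimated by eye on a ten-point control scale after plants spent twelve to sixteen days in a greenhouse following soil or foliar treatment. Foliar sprays targeted plants at one to four leaves; all doses were formulated in a non-phytotoxic solvent with surfactant.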

[2] = tested on: blackgrass; experiment: Test B pre/postemergence blackgrass; type: in vivo, Alopecurus myosuroides; details: for Blackgrass plant response rating: scale of 0 to 10 where 0 is no effect and 10 is complete control
Method in brief: as §1

[3] = tested on: surinam grass; experiment: Test B pre/postemergence surinam grass; type: in vivo, Brachiaria decumbens; details: for B. signalgrass plant response rating: scale of 0 to 10 where 0 is no effect and 10 is complete control
Method in brief: as §1

[4] = tested on: cocklebur; experiment: Test B pre/postemergence cocklebur; type: in vivo, Xanthium strumarium; details: for Cocklebur plant response rating: scale of 0 to 10 where 0 is no effect and 10 is complete control
Method in brief: as §1

[5] = tested on: corn; experiment: Test B pre/postemergence corn; type: in vivo, Zea mays; details: for Corn plant response rating: scale of 0 to 10 where 0 is no effect and 10 is complete control
Method in brief: as §1

[6] = tested on: giant foxtail; experiment: Test B pre/postemergence giant foxtail; type: in vivo, Setaria faberii; details: for Giant foxtail plant response rating: scale of 0 to 10 where 0 is no effect and 10 is complete control
Method in brief: as §1

[7] = tested on: morningglory; experiment: Test B pre/postemergence morningglory; type: in vivo, Ipomoea hederacea; details: for Morningglory plant response rating: scale of 0 to 10 where 0 is no effect and 10 is complete control
Method in brief: as §1

[8] = tested on: pigweed; experiment: Test B pre/postemergence pigweed; type: in vivo, Amaranthus retroflexus; details: for Redroot pigweed plant response rating: scale of 0 to 10 where 0 is no effect and 10 is complete control
Method in brief: as §1

[9] = tested on: rape; experiment: Test B pre/postemergence rape; type: in vivo, Brassica napus; details: for Rape plant response rating: scale of 0 to 10 where 0 is no effect and 10 is complete control
Method in brief: as §1

[10] = tested on: soybean; experiment: Test B pre/postemergence soybean; type: in vivo, Glycine max; details: for Soybean plant response rating: scale of 0 to 10 where 0 is no effect and 10 is complete control
Method in brief: as §1

[11] = tested on: sugar beet; experiment: Test B pre/postemergence sugar beet; type: in vivo, Beta vulgaris; details: for Sugarbeets plant response rating: scale of 0 to 10 where 0 is no effect and 10 is complete control
Method in brief: as §1

[12] = tested on: velvetleaf; experiment: Test B pre/postemergence velvetleaf; type: in vivo, Abutilon theophrasti; details: for Velvetleaf plant response rating: scale of 0 to 10 where 0 is no effect and 10 is complete control
Method in brief: as §1

[13] = tested on: wheat; experiment: Test B pre/postemergence wheat; type: in vivo, Triticum aestivum; details: for Wheat plant response rating: scale of 0 to 10 where 0 is no effect and 10 is complete control
Method in brief: as §1

[14] = tested on: wild oat; experiment: Test B pre/postemergence wild oat; type: in vivo, Avena fatua; details: for Wild oats plant response rating: scale of 0 to 10 where 0 is no effect and 10 is complete control
Method in brief: as §1

[15] = tested on: rice; experiment: Test B flood test rice; type: in vivo, Oryza sativa; details: Pre-emergence
Method in brief: (§2)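 Read-out is a visual response score from 0 (no effect) to 10 (complete control), assigned by comparison with untreated controls. Treatment was applied at the 2-leaf stage, and plants stayed in the greenhouse for twelve to sixteen days before scoring.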

[16] = tested on: smallflower flatsedge; experiment: Test B flood test smallflower flatsedge; type: in vivo, Cyperus difformis; details: Pre-emergence
Method in brief: as §2

[17] = Postemergence, Rate 125 g/ha, scale 0 to 10, 0 is no effect, 10 is complete control
[18] = Postemergence, Rate 250 g/ha, scale 0 to 10, 0 is no effect, 10 is complete control
[19] = Preemergence, Rate 62 g/ha, scale 0 to 10 (0 no effect, 10 complete control)
[20] = Rate 500 g/ha, Postemergence, scale 0 to 10, 0 no effect, 10 complete control
[21] = Rate 62 g/ha, flood test species, visual evaluation after twelve to sixteen days
[22] = Rate 125 g/ha, flood test species, scale 0 to 10 where 0 is no effect and 10 is complete control
[23] = Rate 250 g/ha, flood-test species, scale 0 to 10, 0 is no effect, 10 is complete control
[24] = Rate 500 g/ha, flood test species, scale 0 to 10 (0 no effect, 10 complete control)

SMILES: CC(C)N(C(=O)n1oc(=O)n(C(C)CCl)c1=O)c1ccc(F)cc1 (stereo not shown) [Compound 367]
- Plant response rating, Bedstraw ([1]; Rate 62 g/ha, scale 0 to 10 (0 no effect, 10 complete control)): 10
- Bedstraw plant response rating (0 to 10 scale) ([1]; Rate 125 g/ha): 10
- Bedstraw plant response rating ([1]; Rate 250 g/ha): 10
- Bedstraw plant response rating ([1]; Rate 500 g/ha): 10
- Plant response rating, Blackgrass [2, 17]: 0
- Plant response rating, Blackgrass [2, 18]: 0
- Plant response rating, Blackgrass [2, 19]: 2
- Blackgrass plant response rating (0 to 10 scale) ([2]; Preemergence, Rate 125 g/ha): 7
- Blackgrass plant response rating ([2]; Preemergence, Rate 250 g/ha): 8
- Blackgrass plant response rating ([2]; Preemergence, Rate 500 g/ha): 10
- Blackgrass plant response rating ([2]; Rate 62 g/ha, Postemergence): 0
- Plant response rating, Blackgrass [2, 20]: 8
- Plant response rating, B. signalgrass [3, 17]: 0
- Plant response rating, B. signalgrass [3, 18]: 0
- Plant response rating, B. signalgrass [3, 19]: 0
- B. signalgrass plant response rating (0 to 10 scale, 0 is no effect, 10 is complete control) ([3]; Preemergence, Rate 125 g/ha): 0
- B. signalgrass plant response rating ([3]; Preemergence, Rate 250 g/ha): 4
- B. signalgrass plant response rating ([3]; Preemergence, Rate 500 g/ha): 5
- B. signalgrass plant response rating ([3]; Rate 62 g/ha, Postemergence): 0
- Plant response rating, B. signalgrass [3, 20]: 4
- Plant response rating, Cocklebur [4, 17]: 0
- Plant response rating, Cocklebur [4, 18]: 0
- Plant response rating, Cocklebur [4, 19]: 0
- Cocklebur plant response rating (0 to 10 scale) ([4]; Preemergence, Rate 125 g/ha): 0
- Cocklebur plant response rating ([4]; Preemergence, Rate 250 g/ha): 0
- Cocklebur plant response rating ([4]; Rate 62 g/ha, Postemergence): 0
- Plant response rating, Cocklebur [4, 20]: 2
- Plant response rating, Corn [5, 17]: 0
- Plant response rating, Corn [5, 18]: 0
- Plant response rating, Corn [5, 19]: 0
- Corn plant response rating (0 to 10 scale) ([5]; Preemergence, Rate 125 g/ha): 0
- Corn plant response rating ([5]; Preemergence, Rate 250 g/ha): 2
- Corn plant response rating ([5]; Preemergence, Rate 500 g/ha): 5
- Corn plant response rating ([5]; Rate 62 g/ha, Postemergence): 0
- Plant response rating, Corn [5, 20]: 0
- Plant response rating, Giant foxtail [6, 17]: 3
- Plant response rating, Giant foxtail [6, 18]: 8
- Plant response rating, Giant foxtail [6, 19]: 10
- Giant foxtail plant response rating (0 to 10 scale) ([6]; Preemergence, Rate 125 g/ha): 10
- Giant foxtail plant response rating ([6]; Preemergence, Rate 250 g/ha): 10
- Giant foxtail plant response rating ([6]; Preemergence, Rate 500 g/ha): 10
- Giant foxtail plant response rating ([6]; Rate 62 g/ha, Postemergence): 0
- Plant response rating, Giant foxtail [6, 20]: 8
- Plant response rating, Morningglory [7, 17]: 5
- Plant response rating, Morningglory [7, 18]: 6
- Plant response rating, Morningglory [7, 19]: 0
- Morningglory plant response rating (0 to 10 scale) ([7]; Preemergence, Rate 125 g/ha): 0
- Morningglory plant response rating ([7]; Preemergence, Rate 250 g/ha): 0
- Morningglory plant response rating ([7]; Preemergence, Rate 500 g/ha): 2
- Morningglory plant response rating ([7]; Rate 62 g/ha, Postemergence): 5
- Plant response rating, Morningglory [7, 20]: 7
- Plant response rating, Redroot pigweed [8, 17]: 0
- Plant response rating, Redroot pigweed [8, 18]: 0
- Plant response rating, Redroot pigweed [8, 19]: 10
- Redroot pigweed plant response rating (0 to 10 scale) ([8]; Preemergence, Rate 125 g/ha): 10
- Redroot pigweed plant response rating ([8]; Preemergence, Rate 250 g/ha): 10
- Redroot pigweed plant response rating ([8]; Preemergence, Rate 500 g/ha): 10
- Redroot pigweed plant response rating ([8]; Rate 62 g/ha, Postemergence): 0
- Plant response rating, Redroot pigweed [8, 20]: 7
- Plant response rating, Rape [9, 17]: 0
- Plant response rating, Rape [9, 18]: 0
- Plant response rating, Rape [9, 19]: 0
- Rape plant response rating (0 to 10 scale) ([9]; Preemergence, Rate 125 g/ha): 3
- Rape plant response rating ([9]; Preemergence, Rate 250 g/ha): 5
- Rape plant response rating ([9]; Preemergence, Rate 500 g/ha): 10
- Rape plant response rating ([9]; Rate 62 g/ha, Postemergence): 0
- Plant response rating, Rape [9, 20]: 4
- Plant response rating, Soybean [10, 17]: 1
- Plant response rating, Soybean [10, 18]: 1
- Plant response rating, Soybean [10, 19]: 0
- Soybean plant response rating (0 to 10 scale) ([10]; Preemergence, Rate 125 g/ha): 0
- Soybean plant response rating ([10]; Preemergence, Rate 250 g/ha): 0
- Soybean plant response rating ([10]; Preemergence, Rate 500 g/ha): 0
- Soybean plant response rating ([10]; Rate 62 g/ha, Postemergence): 0
- Plant response rating, Soybean [10, 20]: 2
- Plant response rating, Sugarbeets [11, 17]: 0
- Plant response rating, Sugarbeets [11, 18]: 0
- Plant response rating, Sugarbeets [11, 19]: 2
- Sugarbeets plant response rating (0 to 10 scale) ([11]; Preemergence, Rate 125 g/ha): 4
- Sugarbeets plant response rating ([11]; Preemergence, Rate 250 g/ha): 7
- Sugarbeets plant response rating ([11]; Preemergence, Rate 500 g/ha): 9
- Sugarbeets plant response rating ([11]; Rate 62 g/ha, Postemergence): 0
- Plant response rating, Sugarbeets [11, 20]: 7
- Plant response rating, Velvetleaf [12, 17]: 2
- Plant response rating, Velvetleaf [12, 18]: 2
- Plant response rating, Velvetleaf [12, 19]: 3
- Velvetleaf plant response rating (0 to 10 scale) ([12]; Preemergence, Rate 125 g/ha): 3
- Velvetleaf plant response rating ([12]; Preemergence, Rate 250 g/ha): 5
- Velvetleaf plant response rating ([12]; Preemergence, Rate 500 g/ha): 6
- Velvetleaf plant response rating ([12]; Rate 62 g/ha, Postemergence): 0
- Plant response rating, Velvetleaf [12, 20]: 3
- Plant response rating, Wheat [13, 17]: 0
- Plant response rating, Wheat [13, 18]: 0
- Plant response rating, Wheat [13, 19]: 0
- Wheat plant response rating (0 to 10 scale) ([13]; Preemergence, Rate 125 g/ha): 0
- Wheat plant response rating ([13]; Preemergence, Rate 250 g/ha): 0
- Wheat plant response rating ([13]; Preemergence, Rate 500 g/ha): 0
- Wheat plant response rating ([13]; Rate 62 g/ha, Postemergence): 0
- Plant response rating, Wheat [13, 20]: 6
- Plant response rating, Wild oats [14, 17]: 0
- Plant response rating, Wild oats [14, 18]: 0
- Plant response rating, Wild oats [14, 19]: 0
- Wild oats plant response rating (0 to 10 scale) ([14]; Preemergence, Rate 125 g/ha): 3
- Wild oats plant response rating ([14]; Preemergence, Rate 250 g/ha): 3
- Wild oats plant response rating ([14]; Preemergence, Rate 500 g/ha): 7
- Wild oats plant response rating ([14]; Rate 62 g/ha, Postemergence): 0
- Plant response rating, Wild oats [14, 20]: 8
- Plant response rating, Rice (0 to 10 scale, 0 is no effect, 10 is complete control) [15, 21]: 0
- Rice plant response rating [15, 22]: 0
- Rice plant response rating [15, 23]: 0
- Rice plant response rating [15, 24]: 0
- Plant response rating, S. Flatsedge (0 to 10 scale, 0 is no effect, 10 is complete control) [16, 21]: 0
- S. Flatsedge plant response rating [16, 22]: 0
- S. Flatsedge plant response rating [16, 23]: 0
- S. Flatsedge plant response rating [16, 24]: 0
